Numbers after ± are expanded uncertainties.
What was measured:
[1] = Molar enthalpy of transition or fusion; conditions: Crystal; DSC
[2] = 298.15 K, Metastable liquid, Gas chromatography
[3] = 298.15 K, Liquid, Gas chromatography

## COC(=O)c1ccc(C(=O)OC)cc1 [dimethyl 1,4-benzenedicarboxylate]
[2]
  vapor or sublimation pressure: 2.14e-07 ± 3.1e-08 kPa

## O=C(OC1CCCCC1)c1ccccc1C(=O)OC1CCCCC1 [dicyclohexyl phthalate]
[2]
  vapor or sublimation pressure: 8e-08 ± 2e-08 kPa
Crystal, DTA
  Triple point temperature: 336.5 ± 0.7 K
[1]
  Molar enthalpy of transition or fusion: 7.72 ± 0.693 kcal/mol

## CCCCCCCCOC(=O)c1ccccc1C(=O)OCCCCCCCC [dioctyl 1,2-benzenedicarboxylate]
[3]
  vapor or sublimation pressure: 5.5e-09 ± 1.1e-08 kPa

## CCCCOC(=O)c1ccccc1C(=O)OCc1ccccc1 [benzyl butyl 1,2-benzenedioate]
[3]
  vapor or sublimation pressure: 2e-07 ± 1e-07 kPa

## CCCCC(CC)COC(=O)c1ccc(C(=O)OCC(CC)CCCC)cc1 (configuration not stated) [bis(2-ethylhexyl) terephthalate]
[3]
  vapor or sublimation pressure: 5.4e-09 ± 1e-08 kPa

## CCCCOC(=O)c1ccccc1C(=O)OCCCC [dibutyl phthalate]
333.2 K, Liquid, Transpiration method
  vapor or sublimation pressure: 0.000224 ± 9e-06 kPa
338.4 K, Liquid, Transpiration method
  vapor or sublimation pressure: 0.000365 ± 1.4e-05 kPa
343.4 K, Liquid, Transpiration method
  vapor or sublimation pressure: 0.000586 ± 2.3e-05 kPa
348 K, Liquid, Transpiration method
  vapor or sublimation pressure: 0.000838 ± 3.3e-05 kPa
353.6 K, Liquid, Transpiration method
  vapor or sublimation pressure: 0.0014 ± 5e-05 kPa
358.7 K, Liquid, Transpiration method
  vapor or sublimation pressure: 0.00215 ± 8e-05 kPa
363.7 K, Liquid, Transpiration method
  vapor or sublimation pressure: 0.00316 ± 0.00012 kPa
368.7 K, Liquid, Transpiration method
  vapor or sublimation pressure: 0.00459 ± 0.00018 kPa
373.6 K, Liquid, Transpiration method
  vapor or sublimation pressure: 0.00675 ± 0.00026 kPa
378.5 K, Liquid, Transpiration method
  vapor or sublimation pressure: 0.00948 ± 0.00037 kPa

From the NIST ThermoML archive (doi:10.1021/je500110d)
